According to patent US10265284B2, “Composition for use in the treatment of intervertebral disc-related pain” (STAYBLE THERAPEUTICS AB, priority 2015, dated 2019):

Columns and labels:
Format in all cases: in vivo, pig
[1] = tested on: nucleus pulposus of the L3-4 intervertebral disc; assay: Flexion stiffness of the injected L3-4 intervertebral disc, Example 1; conditions: injected L 3-4 vs non-injected L 2-3 and L 4-5; seven days
Experimental: Access to the L4-5 intervertebral disc was obtained through a lateral incision between the lowest rib and the iliac crest on the left side of each pig. Thereafter, the L3-4 intervertebral disc was incised with a scalpel. […] The composition was injected in a single step at a single occasion.

[2] = tested on: nucleus pulposus of the L3-4 intervertebral disc; assay: Dimension of the disc space after injection, Example 1
Experimental: 110. performing a cross-section of the discs and measuring the length (anterio-posterior direction) and the width (bilateral direction) of the disc space. Two pigs were anesthetized and placed on their right side. Access to the L4-5 intervertebral disc was obtained through a lateral incision between the lowest rib and the iliac crest on the left side of each pig. Thereafter, the L3-4 intervertebral disc was incised with a scalpel. […] The composition was injected in a single step at a single occasion. The intervertebral discs (L2-3, L3-4, L4-5) were cross-sectioned and the length of the disc space (anterio-posterior direction) and the width (bilateral direction) of the disc space were measured by calipers. In FIGS. 5 and 6, an intervertebral disc is schematically shown in cross-section. The intervertebral disc comprises the annulus fibrosus 10, and a disc space defined by the annulus fibrosus and comprising the nucleus pulposus 11.

[3] = Tolerability and adverse reactions after intradiscal injection, Example 1
Experimental: Two pigs were anesthetized and placed on their right side. Access to the L4-5 intervertebral disc was obtained through a lateral incision between the lowest rib and the iliac crest on the left side of each pig. Thereafter, the L3-4 intervertebral disc was incised with a scalpel.
The composition was injected in a single step at a single occasion.
At harvest, the pigs were killed.
The injection site was observed by the naked eye. […] The segment of the vertebral column extending from the lumbar vertebra L2 to the sacral vertebra S1 was removed. The facet joints were removed, thus allowing full flexibility of the discs with no restraints from other structures.

[4] = injected L 3-4 vs non-injected L2-3, L4-5, seven days

CC(O)C(=O)O (stereo not drawn) [lactic acid]
Balanced value (flexion stiffness) of injected discs compared with non-injected adjacent discs [1]: much smaller balanced value | Cross-sectional area of the disc space compared with non-injected discs ([2]; FIG. 7, injected L3-4 vs non-injected L2-3 and L4-5, naked eye): much smaller cross-sectional area | Average anterio-posterior length of the disc space compared with non-injected discs [2, 4]: significantly lower | Average bilateral width of the disc space compared with non-injected discs [2, 4]: significantly lower | Adverse reaction such as decreased mobility or vocalization ([3]; both pigs, period of seven days until harvest, 0.2 mL of 1.34 mol/L, pH 1.8, into L3-4 disc): no adverse reaction | Adverse reaction at the injection site, such as bleedings, inflammation or necrosis ([3]; naked eye at harvest, seven days after injection): No adverse reaction at the injection site
